Measurements reported in the NIST ThermoML archive (doi:10.1021/je500594z).

Experiment: xn = mol fraction of the nth substance listed
Conditions: 101 kPa, Liquid; for viscosity: Falling or rolling sphere viscometry; for speed of sound: Sing-around technique in a fixed-path interferometer; for mass density: Vibrating tube method

CCCC[n+]1ccn(C)c1.O=S(=O)([N-]S(=O)(=O)C(F)(F)F)C(F)(F)F + CCO
Conditions | mass density [kg/m3] | speed of sound [m/s] | viscosity [mPa·s]
278.15 K, x1 = 0.049 | 939.65 | 1204.6 | 2.64
278.15 K, x1 = 0.096 | 1032.42 | 1204.5 | 3.8
278.15 K, x1 = 0.194 | 1162.65 | 1213.9 | 7.4
278.15 K, x1 = 0.288 | 1241.69 | 1225.4 | 12.59
278.15 K, x1 = 0.39 | 1300.98 | 1237.1 | 18.82
278.15 K, x1 = 0.484 | 1340.75 | 1245.5 | 26.93
278.15 K, x1 = 0.591 | 1375.63 | 1253.5 | 38
278.15 K, x1 = 0.696 | 1401.82 | 1260 | 52.96
278.15 K, x1 = 0.818 | 1426.17 | 1266.3 | 77.99
278.15 K, x1 = 0.9 | 1439.65 | 1269.8 | 99.43
278.15 K, x1 = 1 | 1453.69 | 1273.8 | 139.82
298.15 K, x1 = 0.049 | 921.49 | 1142.4 | 1.71
298.15 K, x1 = 0.096 | 1013.65 | 1146.4 | 2.35
298.15 K, x1 = 0.194 | 1143.26 | 1160.7 | 4.13
298.15 K, x1 = 0.288 | 1222.07 | 1174.6 | 6.64
298.15 K, x1 = 0.39 | 1281.27 | 1188 | 9.5
298.15 K, x1 = 0.484 | 1321.04 | 1197.4 | 12.92
298.15 K, x1 = 0.591 | 1355.98 | 1206.2 | 17.3
298.15 K, x1 = 0.696 | 1382.23 | 1213.2 | 22.86
298.15 K, x1 = 0.818 | 1406.65 | 1219.8 | 31.21
298.15 K, x1 = 0.9 | 1420.19 | 1223.6 | 38.05
298.15 K, x1 = 1 | 1434.23 | 1227.5 | 51.22
318.15 K, x1 = 0.049 | 903.02 | 1082 | 1.18
318.15 K, x1 = 0.096 | 994.64 | 1090 | 1.57
318.15 K, x1 = 0.194 | 1123.77 | 1109.1 | 2.61
318.15 K, x1 = 0.288 | 1202.45 | 1125.5 | 3.95
318.15 K, x1 = 0.39 | 1261.65 | 1140.5 | 5.62
318.15 K, x1 = 0.484 | 1301.51 | 1150.8 | 7.52
318.15 K, x1 = 0.591 | 1336.54 | 1160.7 | 9.76
318.15 K, x1 = 0.696 | 1362.91 | 1168.3 | 12.42
318.15 K, x1 = 0.818 | 1387.44 | 1175.6 | 16.16
318.15 K, x1 = 0.9 | 1401.04 | 1179.7 | 19.03
318.15 K, x1 = 1 | 1415.13 | 1184 | 24.36
338.15 K, x1 = 0.049 | 883.95 | 1022.5 | 0.85
338.15 K, x1 = 0.096 | 975.18 | 1034.5 | 1.12
338.15 K, x1 = 0.194 | 1104.04 | 1058.5 | 1.79
338.15 K, x1 = 0.288 | 1182.73 | 1077.4 | 2.71
338.15 K, x1 = 0.39 | 1242.06 | 1094.2 | 3.7
338.15 K, x1 = 0.484 | 1282.08 | 1105.8 | 4.86
338.15 K, x1 = 0.591 | 1317.28 | 1116.5 | 6.26
338.15 K, x1 = 0.696 | 1343.8 | 1124.9 | 7.79
338.15 K, x1 = 0.818 | 1368.47 | 1133 | 9.83
338.15 K, x1 = 0.9 | 1382.15 | 1137.6 | 11.28
338.15 K, x1 = 1 | 1396.35 | 1142.7 | 13.94
